± gives the expanded uncertainty stated by the source.
Experiments:
[1] = Liquid; for mass density: 101.33 kPa
[2] = refractive index (Na D-line) (dimensionless); conditions: 298.15 K; 101.33 kPa; Liquid; Standard Abbe refractometry

SMILES | mass density ([1]; 298.15 K) [kg/m3] | vapor or sublimation pressure ([1]; 298.15 K) [kPa] | vapor or sublimation pressure ([1]; 308.15 K) [kPa] | vapor or sublimation pressure ([1]; 318.15 K) [kPa] | refractive index [2] | mass density ([1]; 298.15 K, Vibrating tube method) [kg/m3]
ClCCCCl [1,3-dichloropropane] | 1181.4 ± 0.3 | 2.75 ± 0.16 | 4.48 ± 0.17 | 6.87 ± 0.18 | 1.4459 ± 0.0007 | –
ClCCCCCl [1,4-dichlorobutane] | 1132.8 ± 0.2 | 0.99 ± 0.16 | 1.39 ± 0.16 | 2.13 ± 0.16 | 1.4519 ± 0.0007 | –
CCCCCl [1-chlorobutane] | – | 13.7 ± 0.4 | 21.32 ± 0.44 | 31.86 ± 0.51 | 1.3991 ± 0.0007 | 880.9 ± 0.1
O=C1CCCC1 [cyclopentanone] | 945.3 ± 0.2 | 1.71 ± 0.32 | 2.8 ± 0.33 | 4.4 ± 0.34 | 1.4347 ± 0.0007 | –
